Results: patent US11780852B2, “Methods for treating Crohn's disease using 3-((1R,3s,5S)-3-((7-((5-methyl-1H-pyrazol-3-yl)amino)-1,6-naphthyridin-5-yl)amino)-8-azabicyclo[3.2.1]octan-8-yl)propanenitrile” (priority 2015, dated 2023)
Where two headings read alike, the source gives them in different places.

How the values were obtained:
[1] = tested on: IL-4 induced STAT6 phosphorylation in THP-1 human monocytic cells
[2] = tested on: oxazolone-induced colitis; assay: Mouse model of oxazolone-induced colitis; type: in vivo, BALB/C mice; details: PO, 1, 3, and/or 10 mg/kg BID (doses up to 10 mg/kg BID)
Method: Assay 7: Mouse Model of Oxazalone-Induced Colitis
Oxazolone-induced colitis is an experimental model that has a histological resemblance to human ulcerative colitis (Heller et al. Immunology, 2002, 17, 629-638). Adult BALB/C mice from Harlan were used in the assay. On day 1, animals were lightly anesthetized with isoflurane and the hairs between the shoulder were carefully removed before oxazolone (4%, 150 μL, 4:1 acetone:olive oil formulation) or vehicle solution was slowly applied for skin sensitization. Seven days after skin sensitization, the mice were fasted overnight, anesthetized with isoflurane inhalation, and a 1 mL syringe equipped with a 3.5-F catheter, filled with oxazolone solution, was inserted carefully about 4 cm into the colon of the mouse. Following insertion, 50 μL of the oxazolone solution (1%, 1:1 ethanol:water formulation) was injected very slowly (over 30 sec using an injection pump) into the colon. The catheter was removed and the mice were held vertically (head down) for 2 min to ensure that the entire oxazolone solution remained inside the colon. Drug treatment (PO, BID or TID) or vehicle was initiated a day prior to the oxazolone intrarectal (IR) challenge. Two-day post oxazolone intrarectal challenge, the Disease Activity Index (DAI) was assessed by treatment-blinded experimenters for each mouse according to the criteria score: stool consistency score (0, normal; 2, loose; 4, diarrhea), gross bleeding score (0, absence; 2, blood tinged; 4, presence), and weight loss score (0, none; 1, 1%-5%; 2, 5%-10^%; 3, 10%-20%; 4, more than 20%); DAI=average of (stool consistency score+gross bleeding score+weight loss score).
Selected compounds of the invention were tested in the assay. Efficacy in the model is evidenced by a decrease in DAI score as compared with the score from vehicle treated animals.

[3] = THP-1 cells, IL-4 induced STAT6 phosphorylation

| SMILES | DAI score as compared with vehicle treated animals [2] | other results |
| --- | --- | --- |
| Cc1cc(Nc2cc3ncccc3c(N[C@@H]3C[C@H]4CC[C@@H](C3)N4Cc3ccc(O)cc3)n2)n[nH]1 [Example 1-18] | – | THP-1 IL4 pIC50 [1]: C (key: A represents a pEC50 value ≥7.5 (EC50≤32 nM); B represents a pEC50 value between 6.7 and 7.5 (EC50 between 200 nM and 32 nM); C represents a pEC50 value <6.7 (EC50>200 nM)) |
| Cc1cc(Nc2cc3ncccc3c(N[C@@H]3C[C@H]4CC[C@@H](C3)N4C3CCCOC3=O)n2)n[nH]1 (some centres unmarked) [Example 1-28] | – | THP-1 IL4 pIC50 [1]: C (key: A represents a pEC50 value ≥7.5 (EC50≤32 nM); B represents a pEC50 value between 6.7 and 7.5 (EC50 between 200 nM and 32 nM); C represents a pEC50 value <6.7 (EC50>200 nM)) |
| Cc1cc(Nc2cc3ncccc3c(N[C@@H]3C[C@H]4CC[C@@H](C3)N4CC3COC(=O)O3)n2)n[nH]1 (some centres unmarked) [Example 1-30] | – | THP-1 IL4 pIC50 [1]: B (key: A represents a pEC50 value ≥7.5 (EC50≤32 nM); B represents a pEC50 value between 6.7 and 7.5 (EC50 between 200 nM and 32 nM); C represents a pEC50 value <6.7 (EC50>200 nM)) |
| Cc1cc(Nc2cc3ncccc3c(N[C@@H]3C[C@H]4CCC[C@@H](C3)N4CC(=O)N(C)C)n2)n[nH]1 [Example 1-38] | statistically significant decrease | – |
| Cc1cc(Nc2cc3ncccc3c(N[C@H]3C[C@H]4CCC[C@@H](C3)N4C3CCOC3=O)n2)n[nH]1 (some centres unmarked) [Example 1-52] | – | THP-1 IL4 pIC50 [1, 3]: B (B represents a pEC50 value between 6.7 and 7.5 (EC50 between 200 nM and 32 nM)) |
| Cc1cc(Nc2cc3ncccc3c(N[C@@H]3C[C@H]4CC[C@@H](C3)N4CCF)n2)n[nH]1 [Example 2, N^5-((1R,3s,5S)-8-(2-fluoroethyl)-8-azabicyclo[3.2.1]octan-3-yl)-N^7-(5-methyl-1H-pyrazol-3-yl)-1,6-naphthyridine-5,7-diamine] | statistically significant decrease | – |
| CCC(C)C(=O)N1C2CCC1CC(Nc1nc(Nc3cc(C)[nH]n3)cc3ncccc13)C2 (centres unmarked) [Example 2-6] | did not exhibit a statistically significant decrease | – |
| COC(=O)C1(C(=O)N2[C@@H]3CC[C@H]2C[C@H](Nc2nc(Nc4cc(C)[nH]n4)cc4ncccc24)C3)CC1 [Example 2-9] | – | THP-1 IL4 pIC50 [1, 3]: C (C represents a pEC50 value <6.7 (EC50>200 nM)) |
| Cc1cc(Nc2cc3ncccc3c(N[C@@H]3C[C@H]4CC[C@@H](C3)N4C(=O)c3ccccc3)n2)n[nH]1 [Example 2-12] | – | THP-1 IL4 pIC50 [1]: B (key: A represents a pEC50 value ≥7.5 (EC50≤32 nM); B represents a pEC50 value between 6.7 and 7.5 (EC50 between 200 nM and 32 nM); C represents a pEC50 value <6.7 (EC50>200 nM)) |
| Cc1cc(Nc2cc3ncccc3c(N[C@@H]3C[C@H]4CC[C@@H](C3)N4C(=O)c3ccncc3)n2)n[nH]1 [Example 2-13] | – | THP-1 IL4 pIC50 [1]: B (key: A represents a pEC50 value ≥7.5 (EC50≤32 nM); B represents a pEC50 value between 6.7 and 7.5 (EC50 between 200 nM and 32 nM); C represents a pEC50 value <6.7 (EC50>200 nM)) |
| Cc1cc(Nc2cc3ncccc3c(NC3CC4CCCC(C3)N4C(=O)C(C)O)n2)n[nH]1 (centres unmarked) [Example 2-16] | did not exhibit a statistically significant decrease | – |
| CCOCC(=O)N1[C@@H]2CCC[C@H]1C[C@H](Nc1nc(Nc3cc(C)[nH]n3)cc3ncccc13)C2 [Example 2-17] | did not exhibit a statistically significant decrease | – |
| Cc1cc(Nc2cc3ncccc3c(N[C@@H]3C[C@H]4CCC[C@@H](C3)N4C(=O)C(C)(C)CO)n2)n[nH]1 [Example 2-22] | did not exhibit a statistically significant decrease | – |
| Cc1cc(Nc2cc3ncccc3c(N[C@@H]3C[C@H]4CCC[C@@H](C3)N4C(=O)Cc3ccccc3)n2)n[nH]1 [Example 2-24] | did not exhibit a statistically significant decrease | – |
| Cc1cc(Nc2cc3ncccc3c(N[C@@H]3C[C@H]4CC[C@@H](C3)N4S(=O)(=O)c3cccnc3)n2)n[nH]1 [Example 3, N^7-(5-methyl-H-pyrazol-3-yl)-N-((1R,3s,5S)-8-(pyridin-3-ylsulfonyl)-8-azabicyclo[3.2.1]octan-3-yl)-1,6-naphthyridine-5,7-diamine] | statistically significant decrease | – |
| Cc1cc(Nc2cc3ncccc3c(N[C@@H]3C[C@H]4CCC[C@@H](C3)N4C(=O)CN(C)C)n2)n[nH]1 [Example 4, 2-(Dimethylamino)-1-((1R,3s,5S)-3-((7-((5-methyl-1H-pyrazol-3-yl)amino)-1,6-naphthyridin-5-yl)amino)-9-azabicyclo[3.3.1]nonan-9-yl)ethan-1-one] | statistically significant decrease | – |
| Cc1cc(Nc2cc3ncccc3c(N[C@@H]3C[C@H]4CC[C@@H](C3)N4S(=O)(=O)CC(C)C)n2)n[nH]1 [Example 4-3] | did not exhibit a statistically significant decrease | – |
| Cc1cc(Nc2cc3ncccc3c(N[C@@H]3C[C@H]4CC[C@@H](C3)N4S(=O)(=O)C3CC3)n2)n[nH]1 [Example 4-4] | did not exhibit a statistically significant decrease | – |
| Cc1cc(Nc2cc3ncccc3c(N[C@@H]3C[C@H]4CC[C@@H](C3)N4S(=O)(=O)Cc3ccccc3)n2)n[nH]1 [Example 4-13] | did not exhibit a statistically significant decrease | – |
| Cc1cc(Nc2cc3ncccc3c(N[C@@H]3C[C@H]4CCC[C@@H](C3)N4S(=O)(=O)C3CC3)n2)n[nH]1 [Example 4-18] | did not exhibit a statistically significant decrease | – |
| COCCS(=O)(=O)N1[C@@H]2CCC[C@H]1C[C@H](Nc1nc(Nc3cc(C)[nH]n3)cc3ncccc13)C2 [Example 4-19] | did not exhibit a statistically significant decrease | – |
| Cc1cc(Nc2cc3ncccc3c(N[C@@H]3C[C@H]4CCC[C@@H](C3)N4S(=O)(=O)CC3CC3)n2)n[nH]1 [Example 4-23] | did not exhibit a statistically significant decrease | – |
| Cc1cc(Nc2cc3ncccc3c(N[C@@H]3C[C@H]4CC[C@@H](C3)N4C(=O)C(F)F)n2)n[nH]1 [Example 5, 2,2-difluoro-1-((1R,3s,5S)-3-((7-((5-methyl-1H-pyrazol-3-yl)amino)-1,6-naphthyridin-5-yl)amino)-8-azabicyclo[3.2.1]octan-8-yl)ethan-1-one] | statistically significant decrease | – |
| Cc1cc(Nc2cc3nc(CO)ccc3c(N[C@@H]3C[C@H]4CC[C@@H](C3)N4CCC#N)n2)n[nH]1 [Example 5-11] | did not exhibit a statistically significant decrease | – |
| COCCS(=O)(=O)N1[C@@H]2CC[C@H]1C[C@H](Nc1nc(Nc3cc(C)[nH]n3)cc3ncccc13)C2 [Example 6, N^5-((1R,3s,5S)-8-((2-methoxyethyl)sulfonyl)-8-azabicyclo[3.2.1]octan-3-yl)-N^7-(5-methyl-1H-pyrazol-3-yl)-1,6-naphthyridine-5,7-diamine] | statistically significant decrease | – |
| CCS(=O)(=O)N1[C@@H]2CC[C@H]1C[C@H](Nc1nc(Nc3cc(C)[nH]n3)cc3ncccc13)C2 [Example 7, N^5-((1R,3s,5S)-8-(ethylsulfonyl)-8-azabicyclo[3.2.1]octan-3-yl)-N^7-(5-methyl-1H-pyrazol-3-yl)-1,6-naphthyridine-5,7-diamine] | did not exhibit a statistically significant decrease | – |
| Cc1cc(Nc2cc3ncccc3c(N[C@@H]3C[C@H]4CCC[C@@H](C3)N4S(=O)(=O)c3ccccc3)n2)n[nH]1 [Example 9, N-(5-methyl-1H-pyrazol-3-yl)-N-((1R,3s,5S)-9-(phenylsulfonyl)-9-azabicyclo[3.3.1]nonan-3-yl)-1,6-naphthyridine-5,7-diamine] | did not exhibit a statistically significant decrease | – |
| Cc1cc(Nc2cc3ncccc3c(N[C@@H]3C[C@H]4CCC[C@@H](C3)N4S(=O)(=O)N3CC(C#N)C3)n2)n[nH]1 [Example 11, 1-(((1R,3s,5S)-3-((7-((5-methyl-1H-pyrazol-3-yl)amino)-1,6-naphthyridin-5-yl)amino)-9-azabicyclo[3.3.1]nonan-9-yl)sulfonyl)azetidine-3-carbonitrile] | did not exhibit a statistically significant decrease | – |
| Cc1cc(Nc2cc3ncccc3c(N[C@@H]3C[C@H]4CC[C@@H](C3)N4S(=O)(=O)N3CC(C#N)C3)n2)n[nH]1 [Example 13, 1-(((1R,3s,5S)-3-((7-((5-methyl-1H-pyrazol-3-yl)amino)-1,6-naphthyridin-5-yl)amino)-8-azabicyclo[3.2.1]octan-8-yl)sulfonyl)azetidine-3-carbonitrile] | did not exhibit a statistically significant decrease | – |
